{
  "source": "patent US20180071280A1",
  "about": "“MODULATORS OF CELL DEATH PROCESSES” (URIFER LTD., priority 2015, published 2018)",
  "key": {"[1]": {"test_system": "SW620 CC cells", "assay": "MultiTox-Fluor cytotoxicity assay in SW620 CC cells", "type": "cell-based, human", "settings": "for cell death: 2 μM; for EC50: Homo sapiens, SW-620, read-out: EC50 (cell death)", "description": "(§1) Cell lines (HCT116, ht29, Rko, Hep3B, SW48, SW620, MDA-MB-231, PANC-1, su.86.86, Hfb) were obtained from the American Type Culture Collection (ATCC). Cell type authentication was carried out by microscope and DNA profiles using short tandem repeat analysis. Cells were grown in Minimum Essential Medium (MEM) containing 10% heat-inactivated Fetal Bovine Serum (FBS) or in Dulbecco's Modified Eagle's Medium (DMEM) containing 10% FBS, where specified, at 37° C. with 5% CO2. In general, the in-vitro experiments were carried out with 2. μM 0260 added into the growth medium. Dose response experiments included increasing 0260 concentrations. Cell death levels were determined using the MultiTox-Fluor Multiplex Cytotoxicity Assay (G9201, Promega, USA). In brief, 10,000 cells were seeded in black bottom 96 wells plate and were allowed to attach to the plate bottom for 16 h before the administration of various 0260 concentration in each well. Cell death levels were determined according to the manufacturer's protocol.\n(§2) Cells death level was determined using the MultiTox-Fluor Multiplex Cytotoxicity Assay (G9201, Promega, USA) according to the manufacturer's protocol."}, "[2]": {"test_system": "su.86.86 (pancreatic cancer cells derived from metastatic site-liver)", "assay": "Cytotoxicity dose response in su.86.86 cells", "type": "cell-based, human", "settings": "24 h, 48 h, 72 h", "description": "as §1, §2"}, "[3]": {"test_system": "SW620 cells", "assay": "TEM analysis of mitochondria in SW620 cells", "type": "cell-based, human", "description": "Cells were grown in MEM or DMEM, washed twice with PBS and fixed for 5 minutes in Karnovsky fixative (2.5% glutaraldehyde, 2.5% paraformaldehyde in cacodylate buffer pH 7.4) on the tissue culture plate. Cells were then harvested, and transferred to 1.5 ml tube for further 1 h fixation at room temperature. The cells were then stored O.N at 4C° after which the samples were washed in 0.1 M cacodylate buffer and post-fixed with 1% OsO4 in 0.1 M sodium cacodylate buffer (Sigma-Aldrich, Israel) for 1 h. Samples were then dehydrated in alcohol and propylene oxide followed by embedding in Agar Mix. Thin sections (60 nm) were cut, stained with uranyl acetate and lead citrate, and observed in a FEI Tecnai transmission electron microscope."}, "[4]": {"test_system": "mice sperm cells", "assay": "Sperm cell motility assay (CASA)", "type": "cell-based", "settings": "2 μM", "description": "For isolation of spermatogenic cells, mice testes were removed from out-bred (ICR) mice and digested in Isolation Medium (DMEM with 2 mM glutamine, 1.5 mM sodium pyruvate, 10% fetal calf serum, 25 μg/ml ampicillin and 1× non-essential amino acids) with added 2 mg/ml collagenase (Sigma-Aldrich) for 5 min at 37° C., and washed twice. Extracellular DNA and proteins were removed with 1 unit/ml DNAse and 0.3 ml 0.5% trypsin at 37° C. for 5 min. Cells were filtered through a nylon mesh with 50 μm pores and incubated in Isolation Medium with 0260 or control for 24 h, and examined under the microscope. Mouse mature caudal spermatozoa were obtained by dissecting the cauda epididymis of male ICR mice and puncturing them in a dish containing 3 ml PBS to enable sperm release out of the epididymal tissue. The sperm suspension was filtered through a nylon mesh with 50 μm pores, centrifuged at 1000×g for 5 min and re-suspended in a buffer compatible with the experimental procedure.\nSperm cell motility was evaluated using the Computer-Aided Sperm Analysis (CASA). Samples (5 μl) were placed in standard count four chamber slide (Leja, Nieuw-Vennet, Netherlands) and analyzed by CASA device with IVOS software (version 12, Hamilton-Thorne Biosciences), acquiring up to ten sequels, 10 s long, for each sample, using parameters identifying mouse sperm motility. The proportion of hyper-activated ([…]) spermatozoa in each sample was determined using the SORT function of the CASA instrument. HAM was defined by curvilinear velocity (VCL)>90 μm/s, linearity (LIN) b20% and an amplitude of lateral head (ALH)>7 μm."}, "[5]": {"molecular_target": "Fer (Homo sapiens, UniProt P16591)", "sequence (P16591 whole entry)": "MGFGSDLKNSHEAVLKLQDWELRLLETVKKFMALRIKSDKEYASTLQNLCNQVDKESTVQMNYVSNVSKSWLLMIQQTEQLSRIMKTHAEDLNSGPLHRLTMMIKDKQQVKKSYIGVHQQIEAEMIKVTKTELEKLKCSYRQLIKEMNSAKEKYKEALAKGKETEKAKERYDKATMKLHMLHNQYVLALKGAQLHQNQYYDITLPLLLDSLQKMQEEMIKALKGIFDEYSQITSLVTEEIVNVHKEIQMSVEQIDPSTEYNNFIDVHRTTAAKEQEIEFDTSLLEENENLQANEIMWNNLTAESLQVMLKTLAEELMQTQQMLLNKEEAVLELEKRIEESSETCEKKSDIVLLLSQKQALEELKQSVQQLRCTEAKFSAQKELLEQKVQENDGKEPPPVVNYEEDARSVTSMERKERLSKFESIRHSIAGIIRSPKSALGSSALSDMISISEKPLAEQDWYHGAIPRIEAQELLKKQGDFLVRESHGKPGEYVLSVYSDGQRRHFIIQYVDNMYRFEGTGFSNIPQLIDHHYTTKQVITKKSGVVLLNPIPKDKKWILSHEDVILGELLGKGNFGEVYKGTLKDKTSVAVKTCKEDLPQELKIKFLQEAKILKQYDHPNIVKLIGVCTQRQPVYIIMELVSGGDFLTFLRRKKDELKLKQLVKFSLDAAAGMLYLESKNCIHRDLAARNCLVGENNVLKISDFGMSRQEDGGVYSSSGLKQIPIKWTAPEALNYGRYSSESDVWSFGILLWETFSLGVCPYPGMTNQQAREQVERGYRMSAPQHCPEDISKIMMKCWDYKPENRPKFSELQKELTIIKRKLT", "assay": "Immunoprecipitation of Fer from 0260 treated SW620 CC cells", "type": "binding", "set-up": "endogenous in cells; host or cells: SW620 colon carcinoma cells", "description": "Protein lysates (1 mg) were prepared from tissues of adult mice according to previously described protocol, including incubation with Protein A Sepharose (GE Healthcare) to avoid nonspecific binding. Protein lysates were incubated with specific antibodies diluted 1:100 overnight at 4° C. Antigen-antibody complexes were precipitated with Protein A Sepharose, washed twice in PBS and eluted in Sample Buffer (2% SDS, 1% DTT 0.02% bromophenol blue 10% glycerol, 12.5 mM EDTA, 50 mM Tris-HCl pH 6.8) at room temperature for 10 min and at 100° C. for 8 min. Eluates were separated on SDS-PAGE and visualized by WB using specific antibodies.\nTo examine the effect of 0260 micellar formulation on Fer in malignant cells, the kinase was immuno-precipitated from untreated and from 0260 treated SW620 CC cells."}},
  "note": "Where a name gives a salt, the structure may show the parent alone. Read-outs that look alike come from different tables or passages of the source.",
  "data": [
    {"compound": "CC(C)c1ccc(-c2cn3nc(N4CCC(CN5CCN(C)CC5)CC4)sc3n2)cc1", "note": "[compound 0260, tartarate salt of 6-(4-isopropyl-phenyl)-2-{4-[(4-methyl-piperazin-1-yl)methyl]piperidin-1-yl}-imidazo [2,1-b][1,3,4]thiadiazole]", "values": [
      {"measurement": "cell death", "setting": "[1]; 24 h, metastatic CC (SW620), 1 gr/l glucose", "value": 100, "unit": "%"},
      {"measurement": "cell death", "setting": "[1]; 72 h, high glucose concentration", "value": 100, "unit": "%"},
      {"measurement": "EC50", "setting": "[1]; SW620, 4.5 gr/1 glucose (DMEM)", "value": 5100, "unit": "nM"},
      {"measurement": "EC50", "setting": "[1]; SW620, 24 h, micellar formulation, 1 gr/l glucose (MEM)", "value": 400, "unit": "nM"},
      {"measurement": "EC50", "setting": "[1]; SW620, 48 h, micellar formulation", "value": 300, "unit": "nM"},
      {"measurement": "death at the highest dose", "setting": "[1]; SW620, 4.5 gr/1 glucose (DMEM)", "value": 50, "unit": "%"},
      {"measurement": "sensitivity of Su.86.86 relative to PANC-1 cells", "setting": "[2]", "value": "more sensitive"},
      {"measurement": "mitochondria morphology (TEM)", "setting": "[3]; 16 h", "value": "deformation and loss of the normal elongated shape of mitochondria"},
      {"measurement": "mitochondria morphology (TEM)", "setting": "[3]; 24 h", "value": "the mitochondria underwent lysis"},
      {"measurement": "mitochondria morphology (TEM)", "setting": "[3]; 24 h, high glucose conditions", "value": "mitochondrial damage was still observed"},
      {"measurement": "percentage of sperm cells exhibiting progressive motility", "setting": "[4]; 5 min", "value": "significantly decreased"},
      {"measurement": "progressive motility", "setting": "[4]; 30 min", "value": "practically reduced to zero"},
      {"measurement": "total motility", "setting": "[4]; 30 min", "value": "practically reduced to zero"},
      {"measurement": "IP of Fer by antibodies toward the N-terminal tail", "setting": "[5]", "value": "did not disable the IP of Fer"}
    ]}
  ]
}
